Reference: patent US5055594A, “Fluorogenic trypotophanase substrates” (Becton, Dickinson and Company, priority 1990, dated 1991)

Tests used:
tryptophanase = test: Reaction of serine-AMC-carbamate with tryptophanase (fluorescence increase); assay type: biochemical; conditions: 1.19×10^-6 M substrate, pH 8.2, 100 μL of 5.0 mq/mL tryptophanase; excitation 365 nm
Description: To a 1.19×10^-6 M solution of serine-AMC-carbamate dissolved in 100 mM potassium phosphate buffer, pH 8.2 was added 100 μL of a 5.0 mq/mL solution of tryptophanase. Fluorescence increase was measured at 440 nm, with excitation at 365 nm. Starting fluorescence of the serine-AMC-carbamate solution was 26 relative units. After addition of the enzyme, fluorescence at 440 nM increased at a rate of 97 units/minute. […] Fluorescence increase in the absence of enzyme was negligible.

Citrobacter diversus = test: Determination of the indole reaction of microorganisms (substrate on cellulose disks, AMC release); assay type: cell-based; conditions: for FLUORESCENCE INCREASE (ng AMC/min): 3×10^8 cfu/ml, phosphate buffer pH 8.4 with toluene, ex 365 nm, em 440 nm
Description: (§1) Aliquots of 20 microliters of a 0.5% solution of the substrate of Example I dissolved in dimethylsulfoxide were added to cellulose disks (catalog no. 740-E, Schleicher and Schuell, Inc. Keene, N.H.). The DMSO was removed by vacuum dessication. The dried disks were placed in the wells of a black polystyrene microwell tray. Four of the disks were each inoculated with 25 microliters of a suspension containing 3×10^8 colony forming units per ml of the known indole positive microorganisms Escherichia coli and Citrobacter diversus and the known indole negative microorganisms Klebsiella pneumoniae and Citrobacter freundii. The suspensions were made in phosphate buffer, pH 8.4, containing toluene at a concentration of 2 drops per 5 ml of buffer to permeabilize the bacteria. Four disks were inoculated with buffer alone to serve as controls. The disks were excited at 365 nm using a xenon lamp and fluorescence was measured at 1 minute intervals for 10 minutes at a wavelength of 440 nm using a Fluoroskan II (Flow Laboratories, McLean, Va. 22102) reader. Results from the four tubes for each organism were averaged and are expressed in the Table as nanograms of free AMC released per minute.

Citrobacter freundii = test: as above; assay type: cell-based; conditions: for FLUORESCENCE INCREASE (ng AMC/min): 3×10^8 cfu/ml, phosphate buffer pH 8.4 with toluene, ex 365 nm, em 440 nm
Description: as §1

Escherichia coli = test: as above; assay type: cell-based; conditions: for FLUORESCENCE INCREASE (ng AMC/min): 3×10^8 cfu/ml, phosphate buffer pH 8.4 with toluene, ex 365 nm, em 440 nm
Description: as §1

Klebsiella pneumoniae = test: as above; assay type: cell-based
Description: as §1

Structure (SMILES): Cc1cc(=O)oc2cc(NC(=O)OC[C@H](N)C(=O)O)ccc12 [serine-AMC-carbamate]
- Rate of fluorescence increase at 440 nM after addition of the enzyme (tryptophanase): 97 units/minute
- Fluorescence increase compared with the control (Citrobacter diversus; C. diversus (indole positive), versus buffer control): much larger fluorescence increases
- FLUORESCENCE INCREASE (ng AMC/min) (Citrobacter diversus; C. diversus strain 404): 5.35 ng AMC/min
- FLUORESCENCE INCREASE (ng AMC/min) (Citrobacter diversus; C. diversus strain 2075): 4.4 ng AMC/min
- Fluorescence increase compared with the control (Citrobacter freundii; C. freundii (indole negative), versus buffer control): about the same fluorescence increase as the control
- FLUORESCENCE INCREASE (ng AMC/min) (Citrobacter freundii; C. freundii strain 2027): 0.8 ng AMC/min
- FLUORESCENCE INCREASE (ng AMC/min) (Citrobacter freundii; C. freundii strain 2058): 0.45 ng AMC/min
- Fluorescence increase compared with the control (Escherichia coli; E. coli (indole positive), versus buffer control): much larger fluorescence increases
- FLUORESCENCE INCREASE (ng AMC/min) (Escherichia coli; E. coli strain 1W9901N1): 1.53 ng AMC/min
- FLUORESCENCE INCREASE (ng AMC/min) (Escherichia coli; E. coli strain 2W0803N1): 1.85 ng AMC/min
- FLUORESCENCE INCREASE (ng AMC/min) (Escherichia coli; E. coli strain 4H8162N1): 1.6 ng AMC/min
- FLUORESCENCE INCREASE (ng AMC/min) (Escherichia coli; E. coli strain 7W0563N1): 1.7 ng AMC/min
- Fluorescence increase compared with the control (Klebsiella pneumoniae; K. pneumoniae (indole negative), versus buffer control): about the same fluorescence increase as the control
- FLUORESCENCE INCREASE (ng AMC/min) (Klebsiella pneumoniae; K. pneumoniae strain 6N3696N1, 3×10^8 cfu/ml, phosphate buffer pH 8.4 with toluene, ex 365 nm, em 440 nm): 0.5 ng AMC/min
